Measured values: the supplement of paper PMC10307832

How the values were obtained:
Experiment in all cases: relative viability (nuclei count vs DMSO), 5 days (fraction); higher = more cells survive
[1] = compound: COc1cc2ncn(-c3cc(OCc4ccccc4C(F)(F)F)c(C(N)=O)s3)c2cc1OC + COc1cccc2cc(-c3nc([C@H]4CC[C@H](C(=O)O)CC4)n4ncnc(N)c34)[nH]c12 [OSI-027] (partner 0.5 µM)
How it was run: (§1)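 Dosing by pin tool came one day after lung cancer cell lines were seeded in 1536-well plates, using either one drug or a fixed anchor-drug dose plus five library-drug doses (not always all listed) in √10 steps. After 5 days, nuclei were counted on 4× images. Relative viability is treated-well nuclei count divided by vehicle-well nuclei count, and values are medians of duplicate plates.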

[2] = compound: COc1cc2ncn(-c3cc(OCc4ccccc4C(F)(F)F)c(C(N)=O)s3)c2cc1OC + CS(=O)(=O)CCNCc1ccc(-c2ccc3ncnc(Nc4ccc(OCc5cccc(F)c5)c(Cl)c4)c3c2)o1 [Lapatinib] (partner 2 µM)
How it was run: as §1

[3] = compound: COc1cc2ncn(-c3cc(OCc4ccccc4C(F)(F)F)c(C(N)=O)s3)c2cc1OC + C[C@]1(O)C[C@@H](c2nc(-c3ccc4ccc(-c5ccccc5)nc4c3)c3c(N)nccn32)C1 [Linsitinib] (partner 1 µM)
How it was run: as §1

[4] = compound: COc1cc2ncn(-c3cc(OCc4ccccc4C(F)(F)F)c(C(N)=O)s3)c2cc1OC + Cc1nc(NC(=O)N2CCC[C@H]2C(N)=O)sc1-c1ccnc(C(C)(C)C(F)(F)F)c1 [Alpelisib] (partner 2 µM)
How it was run: as §1

Cell Line	relative viability ([1]; first compound 0.05 µM)	relative viability ([1]; first compound 0.1581 µM)	relative viability ([1]; first compound 0.5 µM)	relative viability ([1]; first compound 1.581 µM)	relative viability ([1]; first compound 5 µM)	relative viability ([2]; first compound 0.05 µM)	relative viability ([2]; first compound 0.1581 µM)	relative viability ([2]; first compound 0.5 µM)	relative viability ([2]; first compound 1.581 µM)	relative viability ([2]; first compound 5 µM)	relative viability ([3]; first compound 0.05 µM)	relative viability ([3]; first compound 0.1581 µM)	relative viability ([3]; first compound 0.5 µM)	relative viability ([3]; first compound 1.581 µM)	relative viability ([3]; first compound 5 µM)	relative viability ([4]; first compound 0.05 µM)	relative viability ([4]; first compound 0.1581 µM)	relative viability ([4]; first compound 0.5 µM)	relative viability ([4]; first compound 1.581 µM)	relative viability ([4]; first compound 5 µM)
NCI-H23	0.638	0.561	0.316	0.117	0.0957	1.22	0.789	0.451	0.159	0.141	0.655	0.371	0.274	0.113	0.131	0.836	0.363	0.326	0.137	0.102
NCI-H322M	0.512	0.541	0.462	0.319	0.239	0.572	0.578	0.548	0.302	0.257	0.893	0.856	0.748	0.401	0.408	0.797	0.847	0.687	0.426	0.336
NCI-H358	0.744	0.726	0.549	0.0578	0.067	0.553	0.435	0.371	0.175	0.145	0.693	0.678	0.349	0.155	0.141	0.852	1	0.386	0.127	0.177
NCI-H460	0.625	0.616	0.227	0.0107	0.0118	1.03	0.592	0.486	0.0094	0.0099	0.836	0.832	0.0599	0.0112	0.0063	0.51	0.537	0.0496	0.0115	0.0095
NCI-H520	0.28	0.29	0.27	0.163	0.175	1.01	0.814	0.387	0.172	0.149	0.964	0.957	0.477	0.166	0.154	1.08	0.882	0.508	0.186	0.158
NCI-H596	0.758	0.759	0.429	0.222	0.253	1.1	1.22	0.911	0.586	0.33	1.08	1.1	0.87	0.655	0.351	0.496	0.514	0.35	0.29	0.23
NCI-H647	0.687	0.561	0.536	0.0932	0.0815	0.97	0.935	0.448	0.0772	0.0798	1.07	1.09	0.267	0.101	0.126	1.23	1.1	0.214	0.079	0.0802
NCI-H650	0.503	0.63	0.383	0.213	0.189	0.903	1.2	0.531	0.171	0.247	0.896	1.17	0.505	0.118	0.171	1.11	1.1	0.698	0.185	0.29
NCI-H661	0.755	0.581	0.53	0.191	0.174	0.431	0.517	0.467	0.18	0.251	0.513	0.526	0.39	0.247	0.174	0.855	0.367	0.499	0.26	0.224
NCI-H727	0.684	0.692	0.457	0.516	0.407	0.803	0.694	0.541	0.338	0.296	0.321	0.283	0.166	0.186	0.305	0.545	0.695	0.41	0.282	0.247
NCI-H838	0.385	0.424	0.292	0.231	0.123	1.02	1.04	0.638	0.114	0.101	1.15	1.04	0.873	0.178	0.105	1.25	1.02	0.956	0.36	0.142
NCI-H1355	0.433	0.367	0.223	0.177	0.126	0.966	0.964	0.771	0.22	0.152	0.857	0.863	0.617	0.203	0.156	0.879	0.827	0.669	0.208	0.143
NCI-H1395	0.63	0.675	0.547	0.354	0.323	0.928	1.37	0.818	0.354	0.41	0.967	1	0.593	0.395	0.388	1.04	1.11	0.726	0.342	0.375
NCI-H1437	0.958	0.79	0.298	0.142	0.118	0.865	0.699	0.243	0.136	0.113	1.09	1.01	0.11	0.1	0.09	1.11	0.959	0.187	0.12	0.0887
NCI-H1563	0.853	0.687	0.798	0.57	0.488	1.04	1.02	0.877	0.748	0.588	1.22	1.18	1.22	1.21	0.799	0.953	1.02	0.917	0.745	0.599
NCI-H1651	0.762	0.737	0.594	0.145	0.0994	0.916	0.96	0.365	0.103	0.108	1	1.14	0.528	0.117	0.0945	0.98	0.95	0.777	0.111	0.0858
